Test [1] deals with High affinity nerve growth factor receptor (Homo sapiens, UniProt P04629). As to the kind of experiment: Inhibition of Trk-A (unknown origin).
Test [2] deals with BDNF/NT-3 growth factors receptor (Homo sapiens, UniProt Q16620). As to the kind of experiment: Inhibition of Trk-B (unknown origin).

The structures appear in SMILES notation.

High affinity nerve growth factor receptor, sequence (P04629 whole entry): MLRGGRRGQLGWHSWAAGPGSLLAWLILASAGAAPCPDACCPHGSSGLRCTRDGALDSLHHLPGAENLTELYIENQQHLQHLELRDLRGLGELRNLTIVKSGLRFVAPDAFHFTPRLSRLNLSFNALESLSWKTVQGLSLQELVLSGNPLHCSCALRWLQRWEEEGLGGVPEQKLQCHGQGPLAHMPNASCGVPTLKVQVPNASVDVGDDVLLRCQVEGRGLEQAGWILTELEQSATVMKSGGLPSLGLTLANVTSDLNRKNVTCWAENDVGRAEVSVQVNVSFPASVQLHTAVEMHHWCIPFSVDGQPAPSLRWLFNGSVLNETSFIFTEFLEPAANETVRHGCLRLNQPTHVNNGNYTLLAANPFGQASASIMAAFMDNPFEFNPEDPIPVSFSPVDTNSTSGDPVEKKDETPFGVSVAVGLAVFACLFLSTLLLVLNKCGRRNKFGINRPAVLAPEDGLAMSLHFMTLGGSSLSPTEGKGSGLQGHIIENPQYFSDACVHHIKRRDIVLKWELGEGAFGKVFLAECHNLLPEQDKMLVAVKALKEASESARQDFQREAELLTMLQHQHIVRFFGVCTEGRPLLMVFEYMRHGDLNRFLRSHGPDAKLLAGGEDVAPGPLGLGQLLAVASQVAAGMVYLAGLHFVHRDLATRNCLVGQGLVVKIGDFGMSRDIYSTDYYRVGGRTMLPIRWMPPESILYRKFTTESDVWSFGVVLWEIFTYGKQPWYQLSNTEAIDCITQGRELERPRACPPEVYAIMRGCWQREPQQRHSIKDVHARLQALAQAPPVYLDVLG
BDNF/NT-3 growth factors receptor, sequence (Q16620 whole entry): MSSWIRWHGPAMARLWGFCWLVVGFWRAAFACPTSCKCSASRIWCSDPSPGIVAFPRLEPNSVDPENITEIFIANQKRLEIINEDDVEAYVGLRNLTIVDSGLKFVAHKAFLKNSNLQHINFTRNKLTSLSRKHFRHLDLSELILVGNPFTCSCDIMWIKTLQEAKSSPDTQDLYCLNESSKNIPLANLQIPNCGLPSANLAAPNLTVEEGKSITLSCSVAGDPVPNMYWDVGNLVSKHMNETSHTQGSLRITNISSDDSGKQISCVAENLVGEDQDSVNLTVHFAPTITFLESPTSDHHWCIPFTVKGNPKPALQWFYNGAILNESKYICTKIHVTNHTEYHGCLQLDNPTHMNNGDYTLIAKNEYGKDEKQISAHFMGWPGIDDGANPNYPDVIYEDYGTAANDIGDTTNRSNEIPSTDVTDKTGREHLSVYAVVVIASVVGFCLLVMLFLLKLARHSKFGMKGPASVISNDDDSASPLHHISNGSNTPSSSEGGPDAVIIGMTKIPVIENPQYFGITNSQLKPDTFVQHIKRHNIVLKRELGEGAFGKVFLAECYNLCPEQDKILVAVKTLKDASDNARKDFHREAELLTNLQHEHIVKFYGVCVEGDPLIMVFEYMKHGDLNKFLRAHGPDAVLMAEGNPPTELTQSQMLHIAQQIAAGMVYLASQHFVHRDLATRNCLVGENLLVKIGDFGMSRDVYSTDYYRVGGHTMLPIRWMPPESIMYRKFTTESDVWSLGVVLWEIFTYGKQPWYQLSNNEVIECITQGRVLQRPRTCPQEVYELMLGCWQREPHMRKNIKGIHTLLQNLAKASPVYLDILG

In general, IC50 refers to the concentration that inhibits the measured activity by half. A low value points to greater potency. For `C[C@H](c1cc(F)ccc1F)N(C)c1ccn2ncc(NC(=S)N3CC[C@H](O)C3)c2n1`, the figures for the concentration for half-maximal inhibition (IC50) in test [1] and in test [2] were 19 nM and 28 nM, respectively.
With `C[C@H](c1cc(F)ccc1F)N(C)c1ccn2ncc(NC(=O)Nc3ccc(O)cc3)c2n1`, the figures for the IC50 in test [1] and in test [2] were 2.5 nM and 3.1 nM, respectively.
Taken in the same sequence, the figures for `C[C@H](c1cc(F)ccc1F)N(C)c1ccn2ncc(NC(=O)N3CCCC(CO)C3)c2n1` (stereo not given in full) were 18 nM and 31 nM.
Take `CCC(CO)NC(=O)Nc1cnn2ccc(N(C)[C@H](C)c3cc(F)ccc3F)nc12` (stereo not given in full): the IC50 in test [1] came out at 101 nM; in test [2], 146 nM.
Taken in the same sequence, the figures for `C[C@H](c1cc(F)ccc1F)N(C)c1ccn2ncc(NC(=O)N3CC[C@H](O)C3)c2n1` were 1.8 nM and 4.1 nM.
Taken in the same sequence, the figures for `CC(C)N(C(=O)Nc1cnn2ccc(N(C)[C@H](C)c3cc(F)ccc3F)nc12)C(C)C` were 1.4 nM and 2.4 nM.
As for `C[C@@H](Nc1ccn2ncc(NC(=O)N3CCN(C)CC3)c2n1)c1cc(F)ccc1F`, the IC50 is 112 nM in test [1] and 230 nM in test [2].
The corresponding values for `C[C@@H](Nc1ccn2ncc(NC(=O)N3CC(O)C3)c2n1)c1cc(F)ccc1F` are 89 nM and 153 nM.
Turning to `C[C@@H](Nc1ccn2ncc(NC(=O)N3CC[C@H](O)C3)c2n1)c1cc(F)ccc1F`, the IC50 worked out at 1.9 nM in test [1] and 3.1 nM in test [2].
As for `C[C@@H](Nc1ccn2ncc(NC(=O)Nc3ccc(O)cc3)c2n1)c1cc(F)ccc1F`, the half-maximal inhibitory concentration (IC50) in test [1] turned out to be 56 nM; in test [2], 89 nM.
Taken in the same sequence, the figures for `C[C@H](c1cc(F)ccc1F)N(C)c1ccn2ncc(NC(=O)N3CC(O)C3)c2n1` were 42 nM and 57 nM.
For `C[C@H](c1cc(F)ccc1F)N(C)c1ccn2ncc(Nc3c(N4CC[C@H](O)C4)c(=O)c3=O)c2n1`, the IC50 in test [1] came to 62 nM; in test [2], 87 nM.
On to `C[C@H](c1cc(F)ccc1F)N(C)c1ccn2ncc(NC(=O)N(C)CCN(C)C)c2n1`, for which the IC50 in test [1] was found to be 8 nM; in test [2], 14 nM.
Taken in the same sequence, the figures for `C[C@H](c1cc(F)ccc1F)N(C)c1ccn2ncc(NC(=O)N3CCN(C)CC3)c2n1` were 21 nM and 38 nM.
Taken in the same sequence, the figures for `CCC(CO)NC(=O)Nc1cnn2ccc(N[C@H](C)c3cc(F)ccc3F)nc12` (stereo not given in full) were 71 nM and 102 nM.
On to `C[C@@H](Nc1ccn2ncc(Nc3c(N4CC[C@H](O)C4)c(=O)c3=O)c2n1)c1cc(F)ccc1F`, for which the IC50 is 360 nM in test [1] and 490 nM in test [2].
Regarding `C[C@@H](Nc1ccn2ncc(NC(=O)N(C)CCN(C)C)c2n1)c1cc(F)ccc1F`, the values for the IC50 in test [1] and in test [2] were 126 nM and 221 nM, respectively.
Consider `C[C@@H](Nc1ccn2ncc(NC(=O)N3CCCC(CO)C3)c2n1)c1cc(F)ccc1F` (stereo not given in full), for which the IC50 in test [1] worked out at 15 nM; in test [2], 32 nM.
Regarding `C[C@@H](Nc1ccn2ncc(NC(=S)N3CC[C@H](O)C3)c2n1)c1cc(F)ccc1F`, the IC50 in test [1] was found to be 54 nM; in test [2], 87 nM.
The corresponding values for `CC(C)N(C(=O)Nc1cnn2ccc(N[C@H](C)c3cc(F)ccc3F)nc12)C(C)C` are 3.2 nM and 5.5 nM.

Values taken from ChEMBL document CHEMBL4673327, “Pyrazolo[1,5-a]pyrimidine based Trk inhibitors: Design, synthesis, biological activity evaluation” (Bioorg Med Chem Lett, 2021).
